In patent US20260355318A1, “MOLECULAR MACHINES FOR TREATMENT OF CANCER, FUNGAL INFECTIONS, OR BACTERIAL INFECTIONS” (priority 2022, published 2026):

Tests used:
[1] = Photodegradation of MMs by 1H NMR; type: physicochemical; conditions: 5 min, 146 mW cm^−2 405 nm, DMSO-d6
Protocol: Aromatic region of ^1H NMR (600 MHz) spectra of MM 1 (300 mM in DMSO-d6) before and after irradiation for 5 min with 146 mW cm^−2 of 405 nm light.

E. coli [2] = assay: Antibacterial activity of pre-irradiated MM 1; type: cell-based, Escherichia coli; conditions: pre-irradiation 25 min
Protocol: Influence of MM pre-irradiation on the inactivation of E. coli. Top: (1) To test the influence of pre-irradiating MMs on their antibacterial effects, MM 1 was added to a Petri dish containing PBS (final concentration of 8 μM) and irradiated for 25 min at 146 mW cm^−2 with 405 nm light. Cells were then added to an OD of ≈0.02, incubated in the dark for 30 min and then irradiated for up to 10 min at 146 mW cm^−2 with 405 nm light; (2) Independently, MM 1 was added to a Petri dish containing PBS (final concentration of […]), cells were then added to an OD600 of ≈0.02, incubated in the dark for 30 min and then irradiated for up to 10 min at 146 mW cm^−2 with 405 nm light. Bottom: Time-dependent reduction in colony-forming units (expressed as the logarithm of the ratio between the cell number at every time point and the cell number at time zero) of cells treated with pre-irradiated MM 1 or non-irradiated MM 1.

E. coli [3] = assay: Extracellular ATP, E. coli; type: cell-based, Escherichia coli; conditions: 1×MIC
Protocol: Intracellular content leakage following treatment with MMs was determined by quantifying extracellular ATP (O'Neill et al, 2004). Following irradiation in the presence of different concentrations of MM 1, MM 5, and MM 6, or 1% DMSO, E. coli cells were centrifuged at 13,000 g for 5 min. Supernatants were recovered and stored at −20 ° C for ATP analysis. ATP analysis was conducted using the luminescence-based BacTiter-Glo™ assay (Promega) per the manufacturer's instructions. Nisin was used as a positive control. The levels of ATP in supernatants were derived via a standard curve of ATP standards from 1 nM to 1 μM. Luminescence measurements of ATP standards and culture supernatants were measured in triplicate on a microplate reader (BioTek Instruments Inc, Winooski, VT, USA). Results were expressed as relative light units (RLU) corrected for […] in the absence of cells.

C. albicans [4] = assay: Checkerboard interaction with conventional antifungals (FICI), C. albicans; type: cell-based, Candida albicans; conditions: for FICI: 405-nm light
Protocol: A modified checkerboard assay was used to study the interaction of visible-light-activated MMs with conventional antifungals in C. albicans. […] The type of interaction between MMs and conventional antifungals was assessed by calculating the fractional inhibitory concentration index (FICI), with a FICI of ≤0.5, 0.5<x≤4, or >4, denoting synergistic, additive, or antagonistic interactions, respectively (Odds, 2003).
The interaction of MMs with conventional antifungal agents in C. albicans was investigated by determining the MIC of different antifungals alone and after treatment with visible-light-activated MMs using a modified broth microdilution checkerboard assay (Cantón et al., 2005) in an 8×8-well configuration. […] The fractional inhibitory concentration index (FICI) was determined as the sum of the MIC of the MM and the antifungal drug when used in combination divided by their MIC when used alone. An FICI index of ≤0.5, 0.5<x≤4, or >4 indicates synergistic, additive, and antagonistic interactions, respectively (Odds, 2003).

HEK293T cells = assay: Toxicity to HEK293T cells (CellTiter-Glo) and therapeutic index; type: cell-based, human; conditions: ratio between IC50 (HEK293T) and MIC
Protocol: The toxicity of visible-light-activated MMs to mammalian cells was investigated in human embryonic kidney cells (HEK293T) treated with increasing MM concentrations and 87.6 J cm^−2 of 405-nm light. […] The MM concentration that reduced viability by 50% (IC50), calculated from dose-response curves (FIG. 16C), ranged from 1.61-6.02 µM (FIG. 16D). The IC50 and MIC were used to calculate the therapeutic index. With a therapeutic index ≥1 (FIG. 16D), MM 1 was used for in vivo and ex vivo studies.
The biocompatibility of MMs with […] HEK293T cells was assessed using the CellTiter-Glo® Luminescent Cell Viability Assay (Promega, WI, USA) per the manufacturer's instructions by treating cells with increasing concentrations of different MMs plus 405-nm light (87.6 J cm^−2). Dose-response curves were used to determine the MM concentrations that reduced cell viability by 50% (IC50). The therapeutic index was calculated as the ratio between the IC50 and the MIC.

[5] = test system: persister cells of A. baumannii; assay: Persister eradication, A. baumannii; type: cell-based, Acinetobacter baumannii; conditions: 1×MIC, 405 nm
C. albicans [6] = assay: Lipid peroxidation (TBARS, MDA); type: cell-based, Candida albicans; conditions: 2×MIC
Protocol: Superoxide dismutase (SOD) activity was determined using a Superoxide Dismutase Assay Kit (Caymanchem, MI, USA) per the distributor's instructions. Lipid peroxidation was determined using a TBARS assay kit (TCA method) (Caymanchem, MI, USA) per the distributor's instructions. SOD activity and MDA levels were normalized by protein content determined by the Pierce assay (Pierce™ BCA Protein Assay Kit, Thermo Fisher Scientific, MA, USA).

C. albicans [7] = assay: Time-kill assay, C. albicans; type: cell-based, Candida albicans; conditions: C. albicans, 2×MIC, 405-nm light at 292 mW cm^−2
Protocol: For yeasts, five independent colonies were collected from 24-h SDAE plates, inoculated into yeast peptone with 2% dextrose (YPD), and grown for 24 h at 30 °C. Cells were then sub-cultured in fresh medium and grown for ~9 h. Afterward, the cells were centrifuged (5,000 ×g, 5 min), washed, and resuspended in phosphate-buffered saline (PBS) to ~10^6 CFU mL^−1. For A. fumigatus, conidia suspensions (~10^4 CFU mL^−1) were prepared in PBS as previously described.
Amphotericin B (AMB, 4×MIC) controls were prepared likewise, but light was omitted. Aliquots were collected in 1-min increments for up to 10 min, serially diluted in PBS, and plated on SDAE medium. Plates were incubated at 30 ° C for 48 h with confirmation after 72 h (yeasts) or at 28 ° C for 7 days with confirmation after 14 days (A. fumigatus), after which the CFU number was determined. The results were expressed as the logarithm of base 10 of the ratio between the CFU at each time point and the CFU at time 0. The detection limit of the method was ~1 log10 CFU mL^−1.

SMILES | photodegradation [1] | antibacterial activity after pre-irradiation (E. coli [2]) | extracellular levels of ATP (E. coli [3]) | type of interaction with conventional antifungals (C. albicans [4]) | FICI (C. albicans [4]; MM 1 + ciclopirox) | FICI (C. albicans [4]; MM 1 + fluconazole) | FICI (C. albicans [4]; MM 1 + voriconazole) | therapeutic index (HEK293T cells) | time to reduce persister cells to limit of detection [5] [min] | lipid peroxidation product levels (C. albicans [6]) | time to reduce cell numbers to limit of detection (C. albicans [7]) [min]
C[C@@H]1Cc2ccc3ccccc3c2/C1=C1\c2ccccc2Sc2cc(NCCN(C)C)ccc21 [MM 1, N^1N^1-dimethyl-N^2-(9-(2-methyl-2,3-dihydro-1H-cyclopenta[a]naphthalen-1-ylidene)-9H-thioxanthen-3-yl) ethane-1,2-diamine] | does not cause detectable photodegradation of MMs | does not lead to loss of MM antibacterial activity | up to 1.2×10^−7 moles | synergized with all antifungals tested | 0.093 | 0.500 | 0.500 | ≥ 1 | 3 | – | –
C[C@@H]1Cc2ccc3ccccc3c2/C1=C1\c2ccccc2Sc2cc(NCCN)ccc21 (racemic) [MM 6, N^1-(9-(2-methyl-2,3-dihydro-1H-cyclopenta[a]naphthalen-1-ylidene)-9H-thioxanthen-3-yl)ethane-1,2-diamine] | – | – | – | – | – | – | – | – | – | increased levels of the lipid peroxidation product malonaldehyde | 5
